# Test results as given in US11613547B2 (priority 2019, dated 2023).
# Values joined by “and” are separate entries in the source; they are usually repeats but may differ in a detail not shown here. Equal entries are not always repeated. “Also recorded” adds a separate entry of the source.
# Assays:
# mDOR [1] = target: T1, mDOR (Mus musculus, UniProt P32300); experiment: Radioligand competition binding ([125I]IBNtxA), CHO membranes, mDOR
# T1 construct: expressed in transfected cells
# mMOR = target: T2, mMOR (Mus musculus, UniProt P42866); experiment: [35S]GTPγS functional assay, mMOR; type: biochemical
# T2 construct: expressed in transfected cells
# mKOR = target: T3, mKOR (Mus musculus, UniProt P33534); experiment: [35S]GTPγS functional assay, mKOR; type: biochemical
# T3 construct: expressed in transfected cells
# mDOR [2] = target: T1, mDOR; experiment: [35S]GTPγS functional assay, mDOR; type: biochemical
# hMOR [3] = target: T4, hMOR (Homo sapiens, UniProt P35372); experiment: cell-based; type: cell-based
# T4 construct: expressed in transfected cells; host or cells: HEK 293T (ATCC CRL-11268), transient
# hMOR [4] = target: T4, hMOR; experiment: Tango β-arrestin recruitment assay, hMOR; type: cell-based; conditions: Tango
# hKOR [5] = target: T5, hKOR (Homo sapiens, UniProt P41145); experiment: cAMP inhibition assay (GloSensor, HEK 293T), hKOR; type: cell-based
# T5 construct: expressed in transfected cells; host or cells: HEK 293T (ATCC CRL-11268), transient
# hKOR [6] = target: T5, hKOR; experiment: Tango β-arrestin recruitment assay, hKOR; type: cell-based
# [7] = target: T6, mouse mu opioid receptor (mMOR) (Mus musculus, UniProt P42866); experiment: cell-based; type: cell-based
# T6 construct: expressed in transfected cells; host or cells: HEK-293T, transient (PEI), with BRET sensor cDNAs
# [8] = target: T6, mouse mu opioid receptor (mMOR); experiment: cell-based; type: cell-based; remark: listed apart in the source
# [9] = target: T7, rat kappa opioid receptor (rKOR) (Rattus norvegicus, UniProt P34975); experiment: BRET assay, G-protein activation, rKOR; type: cell-based
# T7 construct: expressed in transfected cells; host or cells: HEK-293T, transient (PEI), with BRET sensor cDNAs
# [10] = target: T7, rat kappa opioid receptor (rKOR); experiment: BRET assay, arrestin recruitment, rKOR; type: cell-based; conditions: BRET
# [11] = target: T8, mouse delta opioid receptor (mDOR) (Mus musculus, UniProt P32300); experiment: BRET assay, G-protein activation, mDOR; type: cell-based
# T8 construct: expressed in transfected cells; host or cells: HEK-293T, transient (PEI), with BRET sensor cDNAs
# C57BL/6J mice [12] = experiment: 55° C. warm-water tail-withdrawal assay; type: in vivo, mouse; conditions: icv, 55° C. tail withdrawal
# Description: (§1) Tail-withdrawal assay The 55° C. warm-water tail-withdrawal assay was conducted in mice as a measure of acute thermal antinociception as described previously (Reilley et al., 2010). Briefly, each mouse was tested for baseline tail-withdrawal latency prior to drug administration. Following drug administration, the latency for each mouse to withdraw the tail was measured every 10 minutes until latency returned to the baseline value. A maximum response time of 15 seconds was utilized to prevent tissue damage. […] Data are reported as percent antinociception, calculated by the equation: % antinociception=100×[(test latency−baseline latency)/(15−baseline latency)]. This was utilized to account for innate variability between mice. Compounds were administered either, […] (IP) or intracerebroventricular (icv) and the analgesic action of compounds was assessed at the peak effect as described previously (Haley and McCormick, 1957). In brief, mice were anesthetized using isoflurane. A small incision was made, and the drug (2 μl/mouse) was injected (using a 10 μL Hamilton syringe fitted to a 27-gauge needle) into the right lateral ventricle at the following coordinates: 2 mm caudal to bregma, 2 mm lateral to sagittal suture, and 2 mm in depth. Mice were tested for analgesia at the peak effect post injection.
# [13] = test system: MOR KO, KOR KO, DOR KO mice; experiment: Tail-withdrawal antinociception in opioid receptor knock out mice; type: in vivo, mouse; conditions: 30 nmol icv, relative to WT
# Description: as §1
# 330 non-olfactory GPCRs = experiment: PRESTO-Tango GPCRome β-arrestin recruitment screen; type: cell-based; conditions: 3 μM
# Description: Assessment of off-target activity of MP1207 using PRESTO-Tango GPCR-ome To identify potential off-target activity of MP1207, the National Institutes of Mental Health Psychoactive Drug Screen Program were used. MP1207 was first tested for activity against 330 non-olfactory GPCRs using the PRESTO-Tango GPCRome screening β-arrestin recruitment assay at 3 μM MP1207. The activity at each receptor was measured in quadruplicate.
# Screening of compounds was accomplished using previously described methods with several modifications (www.ncbi.nlm.nih.gov/pmc/articles/PMC4424118/). First, HTLA cells were plated in DMEM with 2% dialyzed FBS and 10 U/mL penicillin-streptomycin. Next, the cells were transfected using an in-plate PEI method (www.ncbi.nlm.nih.gov/pmc/articles/PMC4012321/). PRESTO-Tango receptor DNAs were resuspended in OptiMEM and hybridized with PEI prior to dilution and distribution into 384-well plates and subsequent addition to cells. After overnight incubation, drugs diluted in DMEM with 1% dialyzed FBS were added to cells without replacement of the medium. The remaining steps of the PRESTO-Tango protocol were followed as previously described.
# C57 mice = experiment: Respiratory rate (CLAMS)
# C57/B6 mice = experiment: Locomotor effect (CLAMS); conditions: 30 or 100 nmol icv
# hDOR [14] = target: T9, hDOR (Homo sapiens, UniProt P41143); experiment: cAMP inhibition assay, hDOR; type: cell-based; design: expressed in transfected cells
# Y312W-hKOR [15] = target: T10, Y312W-hKOR (Homo sapiens, UniProt P41145, Y312W); experiment: Tango-arrestin recruitment assay, Y312W-hKOR mutant; type: cell-based; design: expressed in transfected cells; conditions: Tango, compared with wild-type KOR
# C57BL/6J mice [16] = experiment: Conditioned place preference and aversion; conditions: MP1207 100 nmol icv, morphine 10 mg/kg IP, U50,488h 30 mg/kg IP
# hDOR [17] = target: T9, hDOR; experiment: Tango β-arrestin recruitment assay, hDOR; type: cell-based; design: expressed in transfected cells; host or cells: HTLA cells expressing TEV fused-beta-Arrestin2
# Y312W-hKOR [18] = target: T10, Y312W-hKOR; experiment: cAMP inhibition assay, Y312W-hKOR mutant; type: cell-based; design: expressed in transfected cells; host or cells: HEK 293T (inferred from the general cAMP method)
# T4 sequence (P35372 whole entry): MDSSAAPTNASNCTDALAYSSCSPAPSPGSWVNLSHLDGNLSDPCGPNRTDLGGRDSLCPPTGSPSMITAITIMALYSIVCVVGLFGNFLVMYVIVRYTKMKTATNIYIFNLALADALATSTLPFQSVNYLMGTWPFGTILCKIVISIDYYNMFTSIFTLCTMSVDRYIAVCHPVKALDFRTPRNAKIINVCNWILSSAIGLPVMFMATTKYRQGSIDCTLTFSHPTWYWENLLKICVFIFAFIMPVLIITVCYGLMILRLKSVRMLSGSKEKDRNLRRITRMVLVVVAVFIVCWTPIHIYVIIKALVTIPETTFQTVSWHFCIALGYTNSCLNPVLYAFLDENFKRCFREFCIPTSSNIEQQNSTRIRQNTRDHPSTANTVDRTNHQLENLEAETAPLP
# T5 sequence (P41145 whole entry): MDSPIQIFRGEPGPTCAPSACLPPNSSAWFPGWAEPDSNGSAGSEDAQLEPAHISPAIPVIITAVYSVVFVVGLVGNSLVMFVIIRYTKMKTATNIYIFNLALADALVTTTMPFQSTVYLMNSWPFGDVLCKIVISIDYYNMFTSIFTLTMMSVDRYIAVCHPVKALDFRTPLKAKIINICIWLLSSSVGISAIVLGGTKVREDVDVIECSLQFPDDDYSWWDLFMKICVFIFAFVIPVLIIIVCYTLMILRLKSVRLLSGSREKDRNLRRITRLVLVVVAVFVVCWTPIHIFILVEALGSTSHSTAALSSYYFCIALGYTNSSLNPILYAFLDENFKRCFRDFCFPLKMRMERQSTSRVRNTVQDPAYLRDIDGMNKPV
# T9 sequence (P41143 whole entry): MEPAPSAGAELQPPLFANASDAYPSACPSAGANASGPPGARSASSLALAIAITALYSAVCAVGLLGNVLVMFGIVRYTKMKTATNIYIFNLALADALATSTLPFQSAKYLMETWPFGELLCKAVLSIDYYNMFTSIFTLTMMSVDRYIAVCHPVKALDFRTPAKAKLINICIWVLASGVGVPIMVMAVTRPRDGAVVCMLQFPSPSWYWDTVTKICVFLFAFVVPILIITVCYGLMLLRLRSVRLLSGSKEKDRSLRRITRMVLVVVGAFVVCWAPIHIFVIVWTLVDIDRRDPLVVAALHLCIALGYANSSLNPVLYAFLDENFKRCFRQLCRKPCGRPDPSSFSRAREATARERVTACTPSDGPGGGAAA
# T6 sequence (P42866 whole entry): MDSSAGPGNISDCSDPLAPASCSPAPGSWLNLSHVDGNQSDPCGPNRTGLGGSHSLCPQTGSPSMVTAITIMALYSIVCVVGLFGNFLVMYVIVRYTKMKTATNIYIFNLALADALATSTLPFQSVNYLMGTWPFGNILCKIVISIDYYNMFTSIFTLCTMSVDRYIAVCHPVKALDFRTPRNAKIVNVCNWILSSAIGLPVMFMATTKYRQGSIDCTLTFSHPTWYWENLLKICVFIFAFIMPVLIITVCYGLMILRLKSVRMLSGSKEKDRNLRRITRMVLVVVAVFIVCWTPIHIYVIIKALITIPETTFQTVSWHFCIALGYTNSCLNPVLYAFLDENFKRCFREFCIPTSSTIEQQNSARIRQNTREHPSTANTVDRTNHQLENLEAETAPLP
# T10 sequence (P41145 whole entry Y312W): as the sequence (P41145 whole entry) above, with Y312W counted along it
# T7 sequence (P34975 whole entry): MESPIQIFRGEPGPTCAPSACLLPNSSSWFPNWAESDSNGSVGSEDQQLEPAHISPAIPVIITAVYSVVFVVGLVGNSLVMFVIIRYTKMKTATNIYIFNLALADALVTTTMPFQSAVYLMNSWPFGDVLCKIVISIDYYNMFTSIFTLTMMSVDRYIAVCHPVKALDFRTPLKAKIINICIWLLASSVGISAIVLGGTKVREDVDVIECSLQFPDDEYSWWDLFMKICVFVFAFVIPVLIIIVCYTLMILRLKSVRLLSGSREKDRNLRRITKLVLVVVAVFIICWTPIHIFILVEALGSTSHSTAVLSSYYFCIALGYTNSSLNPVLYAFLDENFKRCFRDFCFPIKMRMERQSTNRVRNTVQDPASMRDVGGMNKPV
# T1 sequence (P32300 whole entry): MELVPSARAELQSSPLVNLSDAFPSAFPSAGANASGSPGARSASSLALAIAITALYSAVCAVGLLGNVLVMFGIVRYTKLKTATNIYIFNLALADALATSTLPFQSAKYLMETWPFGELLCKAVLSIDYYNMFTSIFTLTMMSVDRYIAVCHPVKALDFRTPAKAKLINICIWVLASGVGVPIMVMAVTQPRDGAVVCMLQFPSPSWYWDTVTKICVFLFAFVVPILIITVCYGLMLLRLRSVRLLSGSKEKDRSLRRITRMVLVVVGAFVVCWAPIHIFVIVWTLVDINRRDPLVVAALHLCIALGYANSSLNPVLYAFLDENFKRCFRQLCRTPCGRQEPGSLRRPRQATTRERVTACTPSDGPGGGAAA
# T8 sequence (P32300 whole entry): as above
# T3 sequence (P33534 whole entry): as the sequence (P34975 whole entry) above, with E11D, A17S, P51S, V308A counted along it
# T2 sequence (P42866 whole entry): as the sequence (P42866 whole entry) above
smiles,measurement,setting,value
"NCc1cccc(C(=O)NC2CCC3C4Cc5ccc(O)c6c5C3(CCN4CC3CC3)C2O6)c1 [MP1207, 3-(Aminomethyl)-N-((7R,726S)-3-(cyclopropylmethyl)-9-hydroxy-2,3,4,4a,5,6,7,7a-octahydro-1H-4,12-methanobenzofuro[3,2-e]isoquinolin-7-yl)benzamide]",selectivity of MOR and KOR over DOR in the binding assays,mDOR [1],> 40 fold
same,Emax,mMOR,41 ± 1%
same,Emax,mKOR,39.3 ± 1.3%
same,Emax,mDOR [2],10 to 15%
same,efficacy at mDOR,mDOR [2]; [35S]GTPγS,only weak efficacy
same,EC50,hMOR [3],0.0339 nM
same,Emax,"hMOR [3]; HEK-293T, read-out: Gi Emax hMOR",33 ± 1.4%
same,arrestin recruitment at hMOR,hMOR [4],no recruitment of arrestin was seen; also recorded: no arrestin recruitment was observed
same,Emax,"hKOR [5]; HEK-293T, read-out: Gi Emax hKOR",90 ± 1.7%
same,"Bias factor toward G protein, hKOR","hKOR [5]; cAMP inhibition vs Tango, against U50,488H as control",8
same,Emax,hKOR [6],37 ± 2%
same,EC50,"hKOR [6]; Tango, WT-hKOR",3.97 nM
same,EC50,[7],3.61 nM
same,Emax,[7]; read-out: Gi Emax mMOR,42 ± 2.6%
same,arrestin recruitment at mMOR,[8],no recruitment of βarrestin-2; also recorded: no arrestin recruitment was observed
same,EC50,"[9]; BRET, read-out: Gi EC50 rKOR",1.13 nM
same,Emax,[9]; read-out: Gi Emax rKOR,32 ± 2.3%
same,arrestin recruitment at rKOR,[10],no recruitment of βarrestin-2; also recorded: no arrestin recruitment was observed
same,EC50,"[11]; mDOR, BRET",116 nM
same,Emax,[11]; read-out: G-Protein activation Emax % ± SEM,52 ± 2.3%
same,antinociceptive ED50 (95% CI),C57BL/6J mice [12],6.1 (4.1-8.9) nmol and 6.1 nmol
same,antinociception in DOR KO mice,[13],remained intact
same,antinociception in KOR KO mice,[13],significantly attenuated
same,antinociception in MOR KO mice,[13],significantly attenuated
same,selectivity for opioid receptors in GPCRome screen,330 non-olfactory GPCRs; agonism in arrestin recruitment TANGO assay,reasonable selectivity for opioid receptors over 330 GPCRs; also recorded: selectivity for opioid receptors over non-opioid targets
same,increase in signal over basal at opioid receptors,"330 non-olfactory GPCRs; predominantly at KOR and DOR, much less at MOR",2 fold over basal
same,respiratory rate,C57 mice; 30 nmol icv,stimulated respiration; also recorded: an increase in the respiratory rate
same,respiratory rate,C57 mice; 100 nmol icv,still stimulated respiration; also recorded: slight right shift of effect
same,locomotor effect,C57/B6 mice,stimulated locomotor activity; also recorded: increase in the forward locomotory effect
same,EC50,hDOR [14]; hDOR,11.4 nM
same,Emax,hDOR [14]; read-out: cAMP inhibition Emax % ± SEM,38 ± 2%
same,arrestin recruitment at Y312W-hKOR,Y312W-hKOR [15],further reduction of arrestin recruitment; also recorded: reduced arrestin measurement
same,conditioned place preference or aversion (CPP/CPA),C57BL/6J mice [16],"failed to show either rewarding or aversive behavior; also recorded: did not display GPP seen with morphine or CPA behavior seen with U50, 488h"
same,EC50,"hDOR [17]; hDOR, Tango",64.1 nM
same,Emax,hDOR [17]; read-out: Arrestin recruitment Emax % ± SEM,34 ± 3.7%
same,EC50,"Y312W-hKOR [18]; cAMP inhibition, read-out: Gi EC50 Y312W-hKOR",0.16 nM
same,Emax,Y312W-hKOR [18]; read-out: Gi Emax Y312W-hKOR,95 ± 1.8%
